From ChEMBL document CHEMBL1201862, “PubChem BioAssay data set” (2004)
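Method: 48-hour compound exposure of cells in 96-well plates, five concentrations, linear interpolation of endpoints. GI50: concentration for 50% inhibition of growth.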 Active and inactive are the calls of the source. No stated cut-off is given here; in the data, active = GI50 up to about 1.1 µM and inactive = higher. Starred links: 1 amine or outer side, 2 acyl side, 3 side chain; linkers in the order of their positions; H or OH if unused. Positions of bridges follow the written chain, without caps; N, C: chain ends. Non-standard residues stand in square brackets, D forms with d. Residues, ends and D or L forms follow the SMILES beside them. Peptide text beside a SMILES is read from it. * marks the point of attachment. *: point of attachment. X40 = CC[C@H](C)[C@@H](N[*:1])[C@@H](O)CC(=O)[*:2]; NMeY = CN[C@@H](Cc1ccc(O)cc1)C(=O)O; dNMeL = CN[C@H](CC(C)C)C(=O)O; Hiv = CC(C)[C@H](O)C(=O)O; Pyruvoyl = CC(=O)C(=O)*; Boc = CC(C)(C)OC(=O)*

Tests used:
Experiment in all cases: NCI anticancer screen, dose series, 48 h
HCC 2998 = system: HCC 2998
IGROV-1 = system: IGROV-1
K562 = system: K562
SK-MEL-5 = system: SK-MEL-5
UO-31 = system: UO-31
NCI-H23 = system: NCI-H23
CAKI-1 = system: CAKI-1
HOP-92 = system: HOP-92
OVCAR-8 = system: OVCAR-8
M14 = system: M14
OVCAR-4 = system: OVCAR-4
HOP-62 = system: HOP-62
OVCAR-5 = system: OVCAR-5
EKVX = system: EKVX
RPMI-8226 = system: RPMI-8226
ACHN = system: ACHN
UACC-257 = system: UACC-257
Malme-3M = system: Malme-3M
MCF7 = system: MCF7
NCI-H522 = system: NCI-H522

SMILES | GI50 (HCC 2998) | GI50 (IGROV-1) | GI50 (K562) | GI50 (SK-MEL-5) | GI50 (UO-31) | GI50 (NCI-H23) | GI50 (CAKI-1) | GI50 (HOP-92) | GI50 (OVCAR-8) | GI50 (M14) | GI50 (OVCAR-4) | GI50 (HOP-62) | GI50 (OVCAR-5) | GI50 (EKVX) | GI50 (RPMI-8226) | GI50 (ACHN) | GI50 (UACC-257) | GI50 (Malme-3M) | GI50 (MCF7) | GI50 (NCI-H522)
COC(=O)C(Cc1ccccc1)NC(=O)C(CS)NC(=O)OC(C)(C)C (stereo not drawn) (Boc-Cys-Phe-OMe; configuration not given here) | > 100 µM (inactive) | > 100 µM (inactive) | 38.2 µM (inactive) | > 100 µM (inactive) | 74.1 µM (inactive) | > 100 µM (inactive) | > 100 µM (inactive) | > 100 µM (inactive) | > 100 µM (inactive) | > 100 µM (inactive) | 32.1 µM (inactive) | > 100 µM (inactive) | > 100 µM (inactive) | > 100 µM (inactive) | > 100 µM (inactive) | > 100 µM (inactive) | > 100 µM (inactive) | > 100 µM (inactive) | 73.5 µM (inactive) | > 100 µM (inactive)
CC[C@H](C)[C@H]1NC(=O)[C@@H](NC(=O)[C@@H](CC(C)C)N(C)C(=O)[C@@H]2CCCN2C(=O)C(C)=O)[C@@H](C)OC(=O)[C@H](Cc2ccc(OC)cc2)N(C)C(=O)[C@@H]2CCCN2C(=O)[C@H](CC(C)C)NC(=O)[C@H](C(C)C)OC(=O)C[C@@H]1O (Pyruvoyl-P[dNMeL]T[X40][Hiv]LP[NMeY](Me); ester 3-C) | 0.00261 µM (active) | 0.00471 µM (active) | 0.00353 µM (active) | 0.00393 µM (active) | 0.01 µM (active) | 0.00455 µM (active) | 0.0581 µM (active) | 0.0302 µM (active) | 0.006 µM (active) | 0.00269 µM (active) | 0.00562 µM (active) | 0.0046 µM (active) | 0.00632 µM (active) | 0.0031 µM (active) | 0.00545 µM (active) | 0.0203 µM (active) | 0.00594 µM (active) | 0.00538 µM (active) | 0.00232 µM (active) | 0.00547 µM (active)
